Laboratory results: patent US6632447B1, “Method for chemoprevention of prostate cancer” (The University of Tennessee Research Corporation, priority 1998, dated 2003)

What was measured:
[1] = tested on: prostate tumor in TRAMP mice; assay: Prostatic wholemount, histology and large T antigen immunohistochemistry in TRAMP mice; format: in vivo, mouse; settings: vs placebo at 15 weeks
Procedure: This present study focuses on the histological and molecular changes associated with development of prostate tumor in control animals and the mechanism of toremifene chemopreventive action with TRAMP animals which are bred, screened and treated with sustained-release drug pellets. At predetermined times, groups of 5 animals were sacrificed and their prostates were removed for analysis. The prostate glands were evaluated for the presence of tumor by histology, wholemount dissections, and large T antigen immunohistochemistry. To date, the Placebo and the Toremifene treatments have been completed for the 7, 10, 15 and 20 week time-points and the results are described below.
Prostatic wholemounts for 7, 10, 15, and 20 weeks for the various groups have been completed. […] By 20 weeks, there is a striking delay in tumor occurrence in the Toremifene treated group up to 35 weeks FIG. 4). […] For histological evaluation, tissue samples were fixed, processed and paraffin embedded. Sections ([…]) were cut and stained by routine H&E method.

[2] = tested on: prostate cancer in the ventral prostate of TRAMP mice; assay: Chemopreventive activity of toremifene pellets in TRAMP transgenic mice (palpable tumor formation); format: in vivo, mouse
Excerpt: The study of prostate cancer chemoprevention has been hindered by the lack of appropriate animal models. The recent development of the transgenic adenocarcinoma mouse prostate (TRAMP) model enables the study of chemoprevention. In the TRAMP model, which is described in Greenberg et al., AProstate cancer in a transgenic mouse, Proc. Natl Acad. Sci. USA, 1995, Vol. 92, pages 3439-3443, the PB-SV40 large T antigen (PB-Tag) transgene is expressed specifically in the epithelial cells of the murine prostate. […]
A study was undertaken to test the efficacy of chemopreventive agents in TRAMP transgenic animals (PBTag X FVBwt) (provided by Dr. Norman Greenberg, Baylor College of Medicine, TX). […] The efficacy of the treatment was measured by the absence of palpable tumor formation. The murine prostate tumors were harvested and evaluated by molecular and histological techniques.

[3] = tested on: TRAMP mouse ventral prostate; assay: Histological examination (H&E) of ventral prostate tissue of TRAMP mice; format: in vivo; settings: toremifene-treated 30-week-old TRAMP mouse vs placebo-treated 16-week-old
Procedure: 1) Prostate wholemount analysis is serially performed to detect changes in prostate ductal morphology over time with and without treatment; examples are shown in FIG. 2. Tissue sections are evaluated histologically by H&E and Masson-trichome standard staining. The emergence of PIN is assessed and graded (I-mild to III-severe).
Tumors from the placebo and high toremifene-treated groups taken at the time of palpation were evaluated histologically. FIG. 2A is an H&E section of the ventral prostate of a 17-week-old normal adult mouse.

[4] = tested on: human stromal fibroblast cells; assay: TGF synthesis in human stromal fibroblast cells; format: cell-based
[5] = tested on: prostate intraepithelial neoplasia (PIN); assay: Phase IIa prostate cancer chemoprevention human clinical trial (PIN regression); format: in vivo; settings: 60 mg daily for 4 months
Procedure: A Phase IIa, open labeled non randomized single center study with 21 human subjects was conducted. […] After 4 months, patients are rebiopsied (8 biopsies) and PIN status is reassessed. Twenty-one patients entered the study and sixteen patients have completed the study.

## CN(C)CCOc1ccc(/C(=C(/CCCl)c2ccccc2)c2ccccc2)cc1 [Toremifene, toremifene]
[1]
  ductal development and tissue differentiation (H&E histology): inhibited the ductal development and tissue differentiation
[2]; high and low toremifene groups versus placebo
  delay of time to tumors in 25% of the animals: 7-8 weeks
[2]; high and low toremifene groups, placebo week 23
  week by which tumors were palpable in 25% of the animals: 30-31 weeks
[3]
  glandular architecture of the prostate (H&E): retains much of the normal glandular architecture
  mitotic index: much lower than that for the placebo-treated animal
[4]
  TGF? synthesis: significantly induce TGF? synthesis
[5]
  serum PSA, serum free testosterone, serum total testosterone and serum estradiol: remained in the normal ranges
[5]; 16 patients completed
  patients with regression of PIN to benign or atrophic prostate tissue (complete response): 12 out of 16
